Measurements published in PubChem BioAssay (NCI).
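Results reflect a 48-hour exposure of cells in 96-well plates to compound at five concentrations. GI50 is the concentration that inhibits growth by half. TGI marks complete inhibition of growth.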

Key:
Assay in all cases: NCI tumour cell line growth inhibition, 48 h
CCRF-CEM leukemia = tested on: CCRF-CEM leukemia
BT-549 breast = tested on: BT-549 breast
SK-MEL-2 melanoma = tested on: SK-MEL-2 melanoma
LOX IMVI melanoma = tested on: LOX IMVI melanoma
DU-145 prostate = tested on: DU-145 prostate
MALME-3M melanoma = tested on: MALME-3M melanoma
SF-539 CNS = tested on: SF-539 CNS
SN12C renal = tested on: SN12C renal

SMILES	GI50 (CCRF-CEM leukemia)	TGI (CCRF-CEM leukemia)	GI50 (BT-549 breast)	TGI (BT-549 breast)	GI50 (SK-MEL-2 melanoma)	TGI (SK-MEL-2 melanoma)	GI50 (LOX IMVI melanoma)	TGI (LOX IMVI melanoma)	GI50 (DU-145 prostate)	TGI (DU-145 prostate)	GI50 (MALME-3M melanoma)	TGI (MALME-3M melanoma)	GI50 (SF-539 CNS)	TGI (SF-539 CNS)	GI50 (SN12C renal)	TGI (SN12C renal)
NCC[PH+](c1ccccc1)c1ccccc1.NCC[PH+](c1ccccc1)c1ccccc1.[Cl-].[Pt+4]	12.2 µM	> 73.2 µM	> 100 µM	> 100 µM	> 100 µM	> 100 µM	> 100 µM	> 100 µM	> 100 µM	> 100 µM	> 100 µM	> 100 µM	> 100 µM	> 100 µM	> 100 µM	> 100 µM
CSc1ccc2c(c1)N(CCCN(C)C)c1ccccc1S2		23.4 µM		29.2 µM		29.5 µM		32.4 µM		30.1 µM		22 µM		44.9 µM		28.5 µM
COc1ccc(N=C2C(=O)Nc3ccc(Br)cc32)cc1		37.2 µM						27.4 µM		> 100 µM		43 µM		35.8 µM		40.1 µM
C=C1CCC2C(C)(CO)C(O)CCC2(C)C1C/C=C1\C(=O)OCC1O (centres undefined)		> 100 µM		20.3 µM		30.8 µM		30.4 µM		> 100 µM		30.2 µM		44.3 µM		35.8 µM
CNc1ccc(CSc2ccc(C)cc2)cc1	0.676 µM	12.2 µM	3.08 µM	23 µM	38.5 µM	> 100 µM	14.5 µM	> 100 µM	31 µM	> 100 µM	31.5 µM	> 100 µM	3.69 µM	24.5 µM	3.62 µM	53.6 µM
O=C([CH-]C(=O)c1ccccc1)c1ccccc1.[CH2-]C.[CH2-]C.[Tl+3]			26.9 µM	> 100 µM	31.6 µM	> 92.4 µM	10.4 µM	54.7 µM	15.3 µM	59.3 µM	21.3 µM	> 76.7 µM	23.2 µM	86 µM	14.4 µM	> 100 µM
CC(C)(C)OC(=O)CC(S(=O)(=O)c1ccccc1)S(=O)(=O)c1ccccc1	1.64 µM	3.83 µM	12.4 µM	25.2 µM	17 µM	36.2 µM	13.8 µM	33.2 µM	15.2 µM	28.8 µM	2.08 µM	4.36 µM	17.4 µM	33.1 µM	15.4 µM	29.6 µM
CN(Cc1cnc2nc(N)nc(N)c2n1)c1c(Cl)cc(C(=O)NC(CCC(=O)O)C(=O)O)cc1Br (centres undefined)	< 0.01 µM	> 100 µM	< 0.0122 µM	> 100 µM	< 0.01 µM	> 100 µM	< 0.01 µM	> 100 µM	< 0.01 µM	> 100 µM	0.0322 µM	> 100 µM	< 0.01 µM	> 100 µM	< 0.01 µM	> 100 µM
c1ccc2[nH]c(-c3cscn3)nc2c1		> 100 µM		> 100 µM		> 100 µM		> 100 µM		> 100 µM		> 100 µM		> 100 µM		> 100 µM
COc1cc(C(=O)Nc2ccc(-c3nc4ccccc4[nH]3)cc2)cc(OC)c1OC	7.9 µM	39.3 µM	12.7 µM	29.2 µM	14.5 µM	29.5 µM	11.2 µM	30.9 µM	11.2 µM	25.3 µM	12 µM	31.6 µM	11.6 µM	27.9 µM	10.3 µM	25.5 µM
Cc1ncc([N+](=O)[O-])n1CCOc1ccc(C(=O)/C=C/c2ccc(C(F)(F)F)cc2)cc1	2.02 µM	6 µM	4.64 µM	17 µM	3.43 µM	13.6 µM	2.21 µM	5.6 µM	3.56 µM	11.9 µM			1.65 µM	3.07 µM	3.03 µM	11.6 µM
Cc1cn([C@H]2CN(O)C[C@@H](CO)O2)c(=O)[nH]c1=O				> 100 µM		> 100 µM				> 100 µM				> 100 µM		> 100 µM
N#CC(C#N)=C/C=C/c1ccccc1[N+](=O)[O-]		> 10 µM				> 10 µM		7.09 µM		> 10 µM		> 10 µM		> 10 µM		> 10 µM
COC(=O)c1sc(=S)c2sc(C(=O)OC)c(C(=O)OC)c2c1C(=O)OC	30.8 µM	80.1 µM	46.8 µM	> 100 µM	38.7 µM	> 100 µM	46.3 µM	> 100 µM	71.1 µM	> 100 µM			36.7 µM	> 100 µM	30.7 µM	> 100 µM
